Results taken from article PMC6155403, “Camellia sinensis L. Extract and Its Potential Beneficial Effects in Antioxidant, Anti-Inflammatory, Anti-Hepatotoxic, and Anti-Tyrosinase Activities” (Molecules : A Journal of Synthetic Chemistry and Natural …, 2017).

How the values were obtained:
[1] = DPPH free radical scavenging assay; details: 30 min, room temperature (30 °C), 515 nm
Description: The DPPH method [36] was used to determine the free radical-scavenging potential of each sample. The test sample (0.1 mL) was added to 3.9 mL of DPPH solution (6 × 10^−5 M). The absorbance was measured at 515 nm after 30 min of the reaction at room temperature (30 °C). The antiradical activity was calculated as a percentage of DPPH decolouration versus a control. The results were expressed as the concentration of the FTE that scavenged 50% of the free radicals from the reaction mixture (SC50). The percent DPPH scavenging effect was calculated by using following equation [37]: (1) DPPHscavengingeffect(%)orPercentinhibition=[Ao - At/Ao]×100 where Ao is the absorbance of the control reaction and At is the absorbance in the presence of a test or standard sample. AsA, BHA, BHT, and tocopherol were used as positive references.

mushroom tyrosinase = assay: Mushroom tyrosinase inhibition in vitro (dopachrome method, L-DOPA oxidation); assay type: biochemical; details: mean ± SEM; L-DOPA substrate, pH 6.8, 25 °C
Description: Briefly, 120 µL of 20 mM phosphate buffer (pH 6.8), 40 µL of 48 units/mL mushroom tyrosinase, and 20 µL of various sample concentrations with or without enzyme were placed in the wells of a 96-well microplate. After pre-incubation at 25 °C for 10 min, 20 µL of 0.85 mM L-DOPA was added, and the plate was subsequently incubated at 25 °C for 20 min. The amount of dopachrome was measured at 492 nm in an ELISA plate reader (Anthos 2010, Anthos Labtec Instruments GmbH, Wals, Austria). The extent of inhibition by the test samples was expressed as the percentage of concentration necessary to achieve 50% inhibition (IC50).

[2] = Chelation of ferrous metal ions (ferrozine-Fe2+ complex formation); details: mean ± SD; 10 min, 30 °C, 562 nm
Description: The method of Gülçin et al. was followed. The reaction mixture, containing different concentrations of each sample, FeCl2 (2 mM), and ferrozine (1.5 mM), was adjusted to a total volume of 4 mL with absolute methanol, shaken well, and incubated for 10 min at room temperature (30 °C). The absorbance of the mixture was measured at 562 nm against a blank. EDTA was used as the positive reference. The percent inhibition of ferrozine-Fe^2+ complex formation was calculated against a control. The results were expressed as the concentration of the FTE that chelated 50% of metal ions (IC50).

| Compound | Anti-tyrosinase IC50 (mushroom tyrosinase) [µg/mL] | SC50 (50% inhibition of the DPPH scavenging effect) [1] | also measured |
| --- | --- | --- | --- |
| Cc1c(C)c2c(c(C)c1O)CCC(C)(CCCC(C)CCCC(C)CCCC(C)C)O2 (racemic) [Tocopherol, DL-α-tocopherol] |  | 0.196 ± 0.005 moles of tested compound/mole DPPH |  |
| O=C1O[C@H]([C@@H](O)CO)C(O)=C1O [AsA, ascorbic acid] |  | 0.209 ± 0.006 moles of tested compound/mole DPPH |  |
| COc1ccc(O)c(C(C)(C)C)c1 [BHA, butylated hydroxyanisole] |  | 0.184 ± 0.011 moles of tested compound/mole DPPH |  |
| Cc1cc(C(C)(C)C)c(O)c(C(C)(C)C)c1 [BHT, butylated hydroxytoluene] |  | 0.224 ± 0.005 moles of tested compound/mole DPPH |  |
| O=C(O)CN(CCN(CC(=O)O)CC(=O)O)CC(=O)O [EDTA, ethylenediaminetetraacetic acid] |  |  | Iron(II)-chelating IC50 [2]: 10 ± 0 µg/mL |

More lines, main results first:

| Anti-tyrosinase IC50 (mushroom tyrosinase) [µg/mL] | Compound | SC50 (50% inhibition of the DPPH scavenging effect) [1] | also measured |
| --- | --- | --- | --- |
| 76.50 ± 1.50 | O=C(O[C@@H]1Cc2c(O)cc(O)cc2O[C@@H]1c1ccc(O)c(O)c1)c1cc(O)c(O)c(O)c1 [ECG, (−)-epicatechin-3-gallate] |  |  |
| 110.00 ± 0.00 | Oc1cc(O)c2c(c1)O[C@H](c1cc(O)c(O)c(O)c1)[C@H](O)C2 [EGC, (−)-epigallocatechin] |  |  |
| 234.00 ± 6.00 | O=C(O[C@@H]1Cc2c(O)cc(O)cc2O[C@@H]1c1cc(O)c(O)c(O)c1)c1cc(O)c(O)c(O)c1 [EGCG, (−)-epigallocatechin-3-gallate] |  |  |
